Test results as given in patent publication US7148249B2, “Indolinones substituted by heterocycles, the preparation thereof and their use as medicaments” (Boehringer Ingelheim Pharma GmbH & Co. KG, priority 2002, dated 2006).
Where a name gives a salt, the structure may show the parent alone.

System: Human umbilical endothelial cells (HUVEC)
Experiment: Inhibition of VEGF165-stimulated HUVEC proliferation (3H-thymidine incorporation)
Format: cell-based
Conditions: Homo sapiens; HUVEC proliferation stimulated with 5 ng/ml VEGF165 and 10 μg/ml heparin; 76 h incubation + 16 h 3H-thymidine
Experimental: Human umbilical endothelial cells (HUVEC) were cultivated in IMDM (Gibco BRL), supplemented with 10% foetal calf serum (FBS) (Sigma), 50 μM of β-mercaptoethanol (Fluka), standard antibiotics, 15 μg/ml of endothelial cell growth factor (ECGS, Collaborative Biomedical Products) and 100 μg/ml of heparin (Sigma) on gelatine-coated culture dishes (0.2% gelatine, Sigma) at 37° C., under 5% CO2 in a water-saturated atmosphere.
In order to investigate the inhibitory activity of the compounds according to the invention the cells were “starved” for 16 hours, i.e. kept in culture medium without growth factors (ECGS+heparin). The cells were detached from the culture dishes using trypsin/EDTA and washed once in serum-containing medium. Then they were seeded out in amounts of 2.5×10^3 cells per well.
The proliferation of the cells was stimulated with 5 ng/ml of VEGF165 (vascular endothelial growth factor; H. Weich, GBF Braunschweig) and 10 μg/ml of heparin. As a control, 6 wells in each dish were not stimulated.
The compounds according to the invention were dissolved in 100% dimethylsulphoxide and added to the cultures in various dilutions as triple measurements, the maximum dimethylsulphoxide concentration being 0.3%.
The cells were incubated for 76 hours at 37° C., then for a further 16 hours ^3H-thymidine (0.1 μCi/well, Amersham) was added in order to determine the DNA synthesis. Then the radioactively labelled cells were immobilised on filter mats and the radioactivity incorporated was measured in a β-counter. In order to determine the inhibitory activity of the compounds according to the invention the mean value of the non-stimulated cells was subtracted from the mean value of the factor-stimulated cells (in the presence or absence of the compounds according to the invention).
The relative cell proliferation was calculated as a percentage of the control (HUVEC without inhibitor) and the concentration of active substance which inhibits the proliferation of the cells by 50% (IC50) was determined.

SMILES	IC50 [nM]
CCN(C)Cc1ccc(N/C(=C2\C(=O)Nc3cc(Cl)ccc32)c2ccc3c(c2)OCO3)cc1 [(c), 3-(Z)-{1-[4-(N-ethyl-N-methyl-aminomethyl)-phenylamino]-1-(3,4-methylenedioxy-phenyl)-methylene}-6-chloro-2-indolinone]	2
CN(C)CCC(=O)N(C)c1ccc(N/C(=C2\C(=O)Nc3cc(F)ccc32)c2ccc3c(c2)OCCO3)cc1 [(d), 3-(Z)-{1-[4-(N-methyl-N-{2-(dimethylamino)-ethyl-carbonyl}-amino)-phenylamino]-1-(3,4-ethylenedioxyphenyl)-methylene}-6-fluoro-2-indolinone]	3
Cn1cnc2cc(/C(Nc3ccc(Cn4cncn4)cc3)=C3/C(=O)Nc4cc(F)ccc43)ccc21 [(e), 3-(Z)-{1-[4-(1,2,4-triazol-1-yl-methyl)-phenylamino]-1-(1-methyl-benzimidazol-5-yl)-methylene}-6-fluoro-2-indolinone]	16
CN(C)Cc1ccc(N/C(=C2\C(=O)Nc3cc(Cl)ccc32)c2ccc3c(c2)OCCO3)cc1 [(g), 3-(Z)-{1-[4-(dimethylaminomethyl)-phenylamino]-1-(3,4-ethylenedioxyphenyl)-methylene}-6-chloro-2-indolinone]	9
CN(C)CCN(c1ccc(N/C(=C2\C(=O)Nc3cc(Cl)ccc32)c2ccc3c(c2)OCCO3)cc1)S(C)(=O)=O [(h), 3-(Z)-{1-(4-[N-methanesulphonyl-N-(2-dimethylaminoethyl)-amino]-phenylamino)-1-(3,4-ethylenedioxyphenyl)-methylene}-6-chloro-2-indolinone]	3
COC(=O)c1ccc2c(c1)NC(=O)/C2=C(\Nc1ccc(CN(C)C)cc1)c1ccc2c(c1)OCCO2 [(i), 3-(Z)-{1-[4-(dimethylaminomethyl)-phenylamino]-1-(3,4-ethylenedioxyphenyl)-methylene}-6-methoxycarbonyl-2-indolinone]	0.5
COC(=O)c1ccc2c(c1)NC(=O)/C2=C(\Nc1ccc(N(C)C(=O)CN2CCN(C)CC2)cc1)c1ccc2c(c1)OCCO2 [(j), 3-(Z)-{1-(4-[N-methyl-N-(4-methylpiperazin-1-yl-methylcarbonyl)-amino]-phenyl-amino)-1-(3,4-ethylenedioxyphenyl)-methylene}-6-methoxycarbonyl-2-indolinone]	0.2
CC(=O)N(CCN(C)C)c1ccc(N/C(=C2\C(=O)Nc3cc(F)ccc32)c2ccc3c(c2)OCCO3)cc1 [(k), 3-(Z)-{1-(4-[N-acetyl-N-(2-dimethylaminoethyl)-amino]-phenylamino)-1-(3,4-ethylenedioxyphenyl)-methylene}-6-fluoro-2-indolinone]	0.7
CC(=O)N(CCCN(C)C)c1ccc(N/C(=C2\C(=O)Nc3cc(Cl)ccc32)c2ccc3c(c2)OCCO3)cc1 [(m), 3-(Z)-{1-(4-[N-acetyl-N-(3-dimethylaminopropyl)-amino]-phenylamino)-1-(3,4-ethylenedioxyphenyl)-methylene}-6-chloro-2-indolinone]	0.3
CCC(=O)N(CCCN(C)C)c1ccc(N/C(=C2\C(=O)Nc3cc(Cl)ccc32)c2ccc3c(c2)OCCO3)cc1 [(n), 3-(Z)-{1-(4-[N-propionyl-N-(3-dimethylaminopropyl)-amino]-phenylamino)-1-(3,4-ethylenedioxyphenyl)-methylene}-6-chloro-2-indolinone]	1
CCC(=O)N(CCN(C)C)c1ccc(N/C(=C2\C(=O)Nc3cc(Cl)ccc32)c2ccc3c(c2)OCCO3)cc1 [(o), 3-(Z)-{1-(4-[N-propionyl-N-(2-dimethylaminoethyl)-amino]-phenylamino)-1-(3,4-ethylenedioxyphenyl)-methylene}-6-chloro-2-indolinone]	1
CC(=O)N(CCN(C)C)c1ccc(N/C(=C2\C(=O)Nc3cc(Cl)ccc32)c2ccc3c(c2)OCCO3)cc1 [(p), 3-(Z)-{1-(4-[N-acetyl-N-(2-dimethylaminoethyl)-amino]-phenylamino)-1-(3,4-ethylenedioxyphenyl)-methylene}-6-chloro-2-indolinone]	2
CN1CCN(Cc2ccc(N/C(=C3\C(=O)Nc4cc(Cl)ccc43)c3ccc4c(c3)OCO4)cc2)CC1 [(q), 3-(Z)-{1-(4-[4-methylpiperazin-1-yl-methyl]-phenylamino)-1-(3,4-methylenedioxy-phenyl)-methylene}-6-chloro-2-indolinone]	2
COC(=O)c1ccc2c(c1)NC(=O)/C2=C(\Nc1ccc(N(CCN(C)C)S(C)(=O)=O)cc1)c1ccc2c(c1)OCCO2 [(r), 3-(Z)-{1-(4-[N-methanesulphonyl-N-(2-dimethylaminoethyl)-amino]-phenylamino)-1-(3,4-ethylenedioxyphenyl)-methylene}-6-methoxycarbonyl-2-indolinone]	0.2
COC(=O)c1ccc2c(c1)NC(=O)/C2=C(\Nc1ccc(CN2CCCC2)cc1)c1ccc2c(c1)OCCO2 [(s), 3-(Z)-{1-(4-[pyrrolidin-1-yl-methyl]-phenylamino)-1-(3,4-ethylenedioxyphenyl)-methylene}-6-methoxycarbonyl-2-indolinone]	0.6
COC(=O)c1ccc2c(c1)NC(=O)/C2=C(\Nc1ccc(N(C)C(=O)CN(C)C)cc1)c1ccc2c(c1)OCCO2 [(t), 3-(Z)-{1-(4-[N-methyl-N-(dimethylaminomethylcarbonyl)-amino]-phenylamino)-1-(3,4-ethylenedioxyphenyl)-methylene}-6-methoxycarbonyl-2-indolinone]	0.6
COC(=O)c1ccc2c(c1)NC(=O)/C2=C(\Nc1ccc(CN(C)C)cc1)c1ccc2c(c1)OCO2 [(w), 3-(Z)-{1-(4-[dimethylamino-methyl]-phenylamino)-1-(3,4-methylenedioxyphenyl)-methylene}-6-methoxycarbonyl-2-indolinone]	0.5
CCN(CC)Cc1ccc(N/C(=C2\C(=O)Nc3cc(C(=O)OC)ccc32)c2ccc3c(c2)OCO3)cc1 [(x), 3-(Z)-{1-(4-[diethylamino-methyl]-phenylamino)-1-(3,4-methylenedioxyphenyl)-methylene}-6-methoxycarbonyl-2-indolinone]	1
CN(C)C(=O)c1ccc(N/C(=C2\C(=O)Nc3cc(F)ccc32)c2ccc3c(c2)ncn3C)cc1 [(y), 3-(Z)-{1-[4-(dimethylaminocarbonyl)-phenylamino]-1-(1-methyl-benzimidazol-5-yl)-methylene}-6-fluoro-2-indolinone]	14
CCC(=O)N(CCCN(C)C)c1ccc(N/C(=C2\C(=O)Nc3cc(F)ccc32)c2ccc3c(c2)OCCO3)cc1 [(z), 3-(Z)-{1-(4-[N-propionyl-N-(3-dimethylaminopropyl)-amino]-phenylamino)-1-(3,4-ethylenedioxyphenyl)-methylene}-6-fluoro-2-indolinone]	0.5

System: not given
Experiment: not given
Conditions: not given

SMILES	melting point [°C]
CCNCc1ccc(N/C(=C2\C(=O)Nc3cc(Cl)ccc32)c2ccc3c(c2)OCO3)cc1 (as salt: salt) [Example 8.0, 6-chloro-3-(Z)-{1-[4-(ethylaminomethyl)-phenylamino]-1-(3,4-methylenedioxyphenyl)-methylene}-2-indolinone]	248 to 250
CCNCc1ccc(N/C(=C2\C(=O)Nc3cc(F)ccc32)c2ccc3c(c2)ncn3C)cc1 (as salt: salt) [Example 11, 6-fluoro-3-(Z)-{1-[4-(ethylaminomethyl)-phenylamino]-1-(1-methylbenzimidazol-5-yl)-methylene}-2-indolinone]	226 to 228
CCC(=O)N(CCCN(C)C)c1ccc(N/C(=C2\C(=O)Nc3ccccc32)c2coc(N(Cc3ccccc3)Cc3ccccc3)n2)cc1 [Example 1.0, 3-(Z)-[1-{4-[N-propionyl-N-(3-dimethylamino-propyl)-amino]-phenylamino}-1-(2-dibenzylamino-4-oxazolyl)-methylene]-2-indolinone]	204 to 205
CN(C)CC(=O)N(C)c1ccc(N/C(=C2\C(=O)Nc3ccccc32)c2cnccn2)cc1 [Example 2.0, 3-(Z)-{1-[4-(N-dimethylaminomethylcarbonyl-N-methyl-amino)-phenylamino]-1-(2-pyrazinyl)-methylene}-2-indolinone]	198 to 199
CN(C)CC(=O)N(C)c1ccc(N/C(=C2\C(=O)Nc3cc(Cl)ccc32)c2ccncc2)cc1 [Example 3.0, 6-Chloro-3-(Z)-[1-(4-{N-(dimethylaminomethylcarbonyl)-N-methyl-amino}-phenyl-amino)-1-(4-pyridyl)-methylene]-2-indolinone]	274 to 276
CN1CCC(N/C(=C2\C(=O)Nc3ccccc32)c2ccoc2)CC1 [Example 6.0, 3-(Z)-[1-(1-methylpiperidin-4-ylamino)-1-(3-furyl)-methylene]-2-indolinone]	255 to 260
CNC(=O)c1ccc2c(c1)NC(=O)/C2=C(\Nc1ccc(CN2CCN(C)CC2)cc1)c1ccc2c(c1)OCCO2 [Example 10.0, 6-methylaminocarbonyl-3-(Z)-{1-[4-(1-methylpiperazin-4-yl-methyl)-phenylamino]-1-(3,4-ethylenedioxyphenyl)-methylene}-2-indolinone]	172
